In paper PMC6934184, “Selective DNA-PKcs inhibition extends the therapeutic index of localized radiotherapy and chemotherapy” (The Journal of Clinical Investigation, 2019):

Target: T1, TLK2 (Homo sapiens, UniProt Q86UE8)
T1 construct: purchased Thermo Fisher Scientific (Life Technologies) SelectScreen
Test: SelectScreen LanthaScreen
Type: binding
Details: read-out: % displacement
Outline: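 Percent values come from Thermo SelectScreen profiling of NU5455, combining activity and binding assays. CSF1R was run in Z'LYTE format at Km app ATP, and CAMK1 in Adapta format with ATP listed at 10.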

T1 sequence (Q86UE8 whole entry): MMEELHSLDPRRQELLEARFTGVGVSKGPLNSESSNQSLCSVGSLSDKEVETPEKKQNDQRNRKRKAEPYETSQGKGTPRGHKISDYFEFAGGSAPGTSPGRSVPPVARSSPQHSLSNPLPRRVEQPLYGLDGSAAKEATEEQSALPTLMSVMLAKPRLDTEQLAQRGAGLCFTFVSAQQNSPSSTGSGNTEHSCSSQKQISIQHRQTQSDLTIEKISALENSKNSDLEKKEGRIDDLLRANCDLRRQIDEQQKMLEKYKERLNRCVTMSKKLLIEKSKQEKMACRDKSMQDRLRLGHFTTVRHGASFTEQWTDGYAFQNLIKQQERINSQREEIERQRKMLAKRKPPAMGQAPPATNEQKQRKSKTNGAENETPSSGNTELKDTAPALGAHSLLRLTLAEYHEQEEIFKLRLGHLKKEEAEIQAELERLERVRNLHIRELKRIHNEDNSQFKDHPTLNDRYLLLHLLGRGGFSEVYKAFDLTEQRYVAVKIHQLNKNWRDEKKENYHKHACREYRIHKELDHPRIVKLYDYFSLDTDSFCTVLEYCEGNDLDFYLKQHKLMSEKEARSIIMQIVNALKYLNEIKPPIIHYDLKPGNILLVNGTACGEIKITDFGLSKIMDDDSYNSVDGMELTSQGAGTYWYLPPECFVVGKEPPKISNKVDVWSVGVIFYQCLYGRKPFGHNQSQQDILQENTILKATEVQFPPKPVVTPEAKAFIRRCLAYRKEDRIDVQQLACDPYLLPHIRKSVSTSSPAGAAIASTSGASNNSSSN

CN(C(=O)CN1CCOCC1)c1ccc2sc3c(-c4cccc5c(=O)cc(N6CC7CCC(C6)O7)oc45)cccc3c2c1 [NU5455]
inhibition at 1 µM: -0.3%
